Reference: patent US7595313B2, “Nitric oxide donating diuretic compounds, compositions and methods of use” (NicOx, S.A., priority 2005, dated 2009)
Counter-ions that a name gives are not always drawn.

Test system: not given
Assay: not given
Conditions: not given
In the case of `CN(CC1Nc2cc(Cl)c(S(N)(=O)=O)cc2S(=O)(=O)N1)C(=O)CN(CCO[N+](=O)[O-])CCO[N+](=O)[O-]` (stereo not shown), the melting point is reported as 183 to 185 °C (dec.).
Work on `Cc1c(C2Nc3cc(C(F)(F)F)c(S(N)(=O)=O)cc3S(=O)(=O)N2)no[n+]1[O-]` (stereo not shown) (as salt: HCl) [Example 10, 2H-1,2,4-Benzothiadiazine-7-sulfonamide, 3,4-dihydro-3-(4-methyl-5-oxido-1,2,5-oxadiazol-3-yl)-6-(trifluoromethyl)-, 1,1-dioxide] yielded a melting point of 160 °C.
In the case of `NS(=O)(=O)c1cc2c(cc1Cl)N=C(NC(=O)CCCCCO[N+](=O)[O-])NS2(=O)=O` (as salt: hydrochloride) [Example 5b, Hexanamide, N-[7-(aminosulfonyl)-6-chloro-1,1-dioxido-2H-1,2,4-benzothiadiazin-3-yl]-6-(nitrooxy)-], the melting point is reported as 177 to 179 °C.
For `NS(=O)(=O)c1cc2c(cc1Cl)NCN(CCCCO[N+](=O)[O-])S2(=O)=O` (as salt: potassium) [Example 40b, 2H-1,2,4-Benzothiadiazine-7-sulfonamide, 6-chloro-3,4-dihydro-2-[4-(nitrooxy)butyl]-, 1,1-dioxide], the melting point was 75 to 77 °C.
For `NS(=O)(=O)c1cc2c(cc1C(F)(F)F)NC1(CCN(C(=O)CCCCO[N+](=O)[O-])CC1)NS2(=O)=O` [Example 12c, Spiro[2H-1,2,4-benzothiadiazine-3(4H), 4′-piperidine]-7-sulfonamide, 1′-[5-(nitrooxy)-1-oxopentyl]-6-(trifluoromethyl)-, 1,1-dioxide], the melting point was 178 °C (dec.).

Test system: Male Wistar rats
Assay: Determination of the diuresis (urine volume over 6 hours after oral dosing)
Format: in vivo, rat
Conditions: p.o. 3 mg/kg in 0.5% Methocel, male Wistar rats, 6 hours, mean ± SEM, n=6 or 7
Method: Procedures were approved by the Institutional Animal Care and Use Committee of NitroMed, Inc. Male Wistar rats (180-200 g) were purchased from Charles River Laboratories (Kingston, N.Y. or Raleigh, N.C.) and allowed to acclimate in the facility for a period of at least 72 h. Rats were randomly housed 2-3 per cage in a light-controlled room with a 12 hour light/dark cycle and allowed ad libitum access to food and water.
Prior to the experiment, each rat was placed in a metabolic cage and allowed to acclimate for a period of 24-48 hours with food and water ad libitum. During this acclimation period, rats received mash food instead of pellet food to prevent contamination of the urine samples. All rats were fasted for 18 hours prior to experimentation. In addition, water was removed 90 minutes prior to oral dosing with test compound or vehicle.
The test compounds were prepared immediately prior to dosing in 0.5% Methocel (F4M Premium Hydroxypropyl Methylcellulose, lot # PF12012N12; Dow Chemical Company, USA) and homogenized with a glass/Teflon pestle motorized homogenizer. Gently vortexed test compounds were administered intragastrically (p.o.; 30 mg/kg or 3 mg/kg) at a dose volume of 3 ml per rat using an 18 gauge gavage needle. Urine volume (ml) was monitored and urine was collected for subsequent electrolyte analysis over a 6 hours period. […] Data are expressed as mean ±SEM; n=6 or 7.
In the case of `NC1=Nc2cc(Cl)c(S(N)(=O)=O)cc2S(=O)(=O)N1` [Example 4b, 2H-1,2,4-Benzothiadiazine-7-sulfonamide, 3-amino-6-chloro-, 1,1-dioxide], the “Urine collected in 6 hours (mL) (3 mg/kg)” value (from here on “Urine collected … (3 mg/kg)”) is reported as 4.0 ± 0.5 mL.
For `NS(=O)(=O)c1cc2c(cc1Cl)NCN(CC(=O)O)S2(=O)=O` [Example 31a, 2H-1,2,4-Benzothiadiazine-2-acetic acid, 7-(aminosulfonyl)-6-chloro-3,4-dihydro-, 1,1-dioxide], the “Urine collected … (3 mg/kg)” value was 2.5 ± 0.3 mL.
In the case of `NS(=O)(=O)c1cc2c(cc1Cl)NC(CBr)NS2(=O)=O` (stereo not shown) [Example 36a, 2H-1,2,4-Benzothiadiazine-7-sulfonamide, 3-(bromomethyl)-6-chloro-3,4-dihydro-, 1,1-dioxide], the “Urine collected … (3 mg/kg)” value is reported as 5.5 ± 0.6 mL.
For `NS(=O)(=O)c1cc2c(cc1Cl)NC(CN1CCC(CCO[N+](=O)[O-])CC1)NS2(=O)=O.O=C(O)CC(O)(CC(=O)O)C(=O)O` (stereo not shown) [Example 36c, 2H-1,2,4-Benzothiadiazine-7-sulfonamide, 6-chloro-3,4-dihydro-3-[[4-[2-(nitrooxy)ethyl]-1-piperidinyl]methyl]-, 1,1-dioxide, 2-hydroxy-1,2,3-propanetricarboxylate (1:1) (salt)], the “Urine collected … (3 mg/kg)” value was 3.0 ± 0.4 mL.
In the case of `NS(=O)(=O)c1cc2c(cc1Cl)NCN(CCCCO[N+](=O)[O-])S2(=O)=O` [Example 40b, 2H-1,2,4-Benzothiadiazine-7-sulfonamide, 6-chloro-3,4-dihydro-2-[4-(nitrooxy)butyl]-, 1,1-dioxide], the “Urine collected … (3 mg/kg)” value is reported as 6.0 ± 0.7 mL.
With `NS(=O)(=O)c1cc2c(cc1Cl)NCN(CCOC(=O)CCCCO[N+](=O)[O-])S2(=O)=O` [Example 44, Pentanoic acid, 5-(nitrooxy)-, 2-[7-(aminosulfonyl)-6-chloro-3,4-dihydro-1,1-dioxido-2H-1,2,4-benzothiadiazin-2-yl]ethyl ester] the “Urine collected … (3 mg/kg)” value was 2.5 ± 0.3 mL.
In the case of `NS(=O)(=O)c1cc2c(cc1Cl)NCN(CCCCOc1cc(CO)cc(CO)c1)S2(=O)=O` [Example 69a, 2H-1,2,4-Benzothiadiazine-7-sulfonamide, 2-[4-[3,5-bis(hydroxymethyl)phenoxy]butyl]-6-chloro-3,4-dihydro-, 1,1-dioxide], the “Urine collected … (3 mg/kg)” value is reported as 2.7 ± 0.6 mL.
With `NS(=O)(=O)c1cc2c(cc1Cl)NCN(CCCOc1cc(CO)cc(CO)c1)S2(=O)=O` [Example 70b, 2H-1,2,4-Benzothiadiazine-7-sulfonamide, 2-[3-[3,5-bis(hydroxymethyl)phenoxy]propyl]-6-chloro-3,4-dihydro-, 1,1-dioxide] the “Urine collected … (3 mg/kg)” value was 2.8 ± 0.7 mL.
With `NS(=O)(=O)c1cc2c(cc1Cl)NCN(CCOc1cc(CO)cc(CO)c1)S2(=O)=O` [Example 71b, 2H-1,2,4-Benzothiadiazine-7-sulfonamide, 2-[2-[3,5-bis(hydroxymethyl)phenoxy]ethyl]-6-chloro-3,4-dihydro-, 1,1-dioxide] the “Urine collected … (3 mg/kg)” value was 2.1 ± 0.5 mL.
With `NS(=O)(=O)c1cc2c(cc1Cl)NCN(CC(O)CO)S2(=O)=O` (stereo not shown) [Example 75b, 2H-1,2,4-Benzothiadiazine-7-sulfonamide, 6-chloro-2-(2,3-dihydroxypropyl)-3,4-dihydro-, 1,1-dioxide] the “Urine collected … (3 mg/kg)” value was 4.6 ± 0.6 mL.

Same assay, conditions: p.o. 30 mg/kg in 0.5% Methocel, male Wistar rats, 6 hours, mean ± SEM, n=6 or 7
With `NS(=O)(=O)c1cc2c(cc1Cl)N[C@@H](CCCCO[N+](=O)[O-])NS2(=O)=O` (single isomer, unassigned) [17c (enantiomer 1)] the “Urine collected in 6 hours (mL) (30 mg/kg)” value (“Urine collected … (30 mg/kg)” for short) was 7.0 ± 0.6 mL.
For `NS(=O)(=O)c1cc2c(cc1Cl)N[C@H](CCCCO[N+](=O)[O-])NS2(=O)=O` (single isomer, unassigned) [17c (enantiomer 2)], the “Urine collected … (30 mg/kg)” value was 7.8 ± 0.5 mL.
In the case of `NS(=O)(=O)c1cc2c(cc1Cl)N=C(NC(=O)CCCCCO[N+](=O)[O-])NS2(=O)=O` [Example 5b, Hexanamide, N-[7-(aminosulfonyl)-6-chloro-1,1-dioxido-2H-1,2,4-benzothiadiazin-3-yl]-6-(nitrooxy)-], the “Urine collected … (30 mg/kg)” value is reported as 4.5 ± 0.5 mL.
With `Cc1c(C2Nc3cc(C(F)(F)F)c(S(N)(=O)=O)cc3S(=O)(=O)N2)no[n+]1[O-]` (stereo not shown) [Example 10, 2H-1,2,4-Benzothiadiazine-7-sulfonamide, 3,4-dihydro-3-(4-methyl-5-oxido-1,2,5-oxadiazol-3-yl)-6-(trifluoromethyl)-, 1,1-dioxide] the “Urine collected … (30 mg/kg)” value was 6.9 ± 0.9 mL.
For `CC(C)(C)OC(=O)N1CCC2(CC1)Nc1cc(C(F)(F)F)c(S(N)(=O)=O)cc1S(=O)(=O)N2` [Example 12a, Spiro[2H-1,2,4-benzothiadiazine-3(4H), 4′-piperidine]-1′-carboxylic acid, 7-(aminosulfonyl)-6-(trifluoromethyl)-, 1,1-dimethylethyl ester, 1,1-dioxide], the “Urine collected … (30 mg/kg)” value was 4.0 ± 0.4 mL.
With `NS(=O)(=O)c1cc2c(cc1C(F)(F)F)NC1(CCN(C(=O)c3cccc(CO[N+](=O)[O-])c3)CC1)NS2(=O)=O` [Example 15b, Spiro[2H-1,2,4-benzothiadiazine-3(4H), 4′-piperidine]-7-sulfonamide, 1′-[3-[(nitrooxy)methyl]benzoyl]-6-(trifluoromethyl)-, 1,1-dioxide] the “Urine collected … (30 mg/kg)” value was 4.5 ± 0.2 mL.

Same assay, conditions: rat, in vivo, po
With `NS(=O)(=O)c1cc2c(cc1Cl)NCN(C[C@H](CO[N+](=O)[O-])O[N+](=O)[O-])S2(=O)=O` (single isomer, unassigned) [75d (enantiomer 1)] the “Urine collected … (3 mg/kg)” value was 5.3 ± 0.3 mL.
In the case of `NS(=O)(=O)c1cc2c(cc1Cl)NCN(C[C@@H](CO[N+](=O)[O-])O[N+](=O)[O-])S2(=O)=O` (single isomer, unassigned) [75d (enantiomer 2)], the “Urine collected … (3 mg/kg)” value is reported as 5.5 ± 0.4 mL.
With `NS(=O)(=O)c1cc2c(cc1Cl)NC1(CCN(C(=O)CCC(CO[N+](=O)[O-])O[N+](=O)[O-])CC1)NS2(=O)=O` (stereo not shown) [Example 22b, Spiro[2H-1,2,4-benzothiadiazine-3(4H), 4′-piperidine]-7-sulfonamide, 1′-[4,5-bis(nitrooxy)-1-oxopentyl]-6-chloro-, 1,1-dioxide] the “Urine collected … (30 mg/kg)” value was 2.5 ± 0.2 mL.
With `NS(=O)(=O)c1cc2c(cc1Cl)NCN(CC(=O)OC[C@H](CO[N+](=O)[O-])O[N+](=O)[O-])S2(=O)=O` [Example 31b, 2H-1,2,4-Benzothiadiazine-2-acetic acid, 7-(aminosulfonyl)-6-chloro-3,4-dihydro-, (2R)-2,3-bis(nitrooxy)propyl ester, 1,1-dioxide] the “Urine collected … (3 mg/kg)” value was 2.0 ± 0.3 mL.
In the case of `NS(=O)(=O)c1cc2c(cc1Cl)NCN(CC(=O)N(CCO[N+](=O)[O-])CCO[N+](=O)[O-])S2(=O)=O` [Example 39, 2H-1,2,4-Benzothiadiazine-2-acetamide, 7-(aminosulfonyl)-6-chloro-3,4-dihydro-N,N-bis[2-(nitrooxy)ethyl]-, 1,1-dioxide], the “Urine collected … (3 mg/kg)” value is reported as 2.5 ± 0.5 mL.
With `NS(=O)(=O)c1cc2c(cc1Cl)NCN(CCOC(=O)CCC(CO[N+](=O)[O-])O[N+](=O)[O-])S2(=O)=O` (stereo not shown) [Example 42, Pentanoic acid, 4,5-bis(nitrooxy)-, 2-[7-(aminosulfonyl)-6-chloro-3,4-dihydro-1,1-dioxido-2H-1,2,4-benzothiadiazin-2-yl]ethyl ester] the “Urine collected … (3 mg/kg)” value was 6.2 ± 0.3 mL.
For `NS(=O)(=O)c1cc2c(cc1Cl)NCN(CC(CO[N+](=O)[O-])O[N+](=O)[O-])S2(=O)=O` (stereo not shown) [Example 75c, 2H-1,2,4-Benzothiadiazine-7-sulfonamide, 2-[2,3-bis(nitrooxy)propyl]-6-chloro-3,4-dihydro-, 1,1-dioxide], the “Urine collected … (3 mg/kg)” value was 5.4 ± 0.6 mL.
